Drawing on patent publication US6972287B1, “Method of inhibiting amyloid protein aggregation and imaging amyloid deposits” (Pfizer Inc., priority 1999, dated 2005), this text covers IC50 and melting point for 23 molecules.

Broadly, the IC50 is the point on the concentration scale where inhibition reaches its midpoint. One may read the melting point as the temperature of the solid-liquid transition.

Several values for one entry are separate records, joined by “and”; a condition that tells them apart may be missing. Equal values may be shown once.

Data set [1] has as its target T1, Aβ(1-40) (Homo sapiens, UniProt P05067).
T1 construct: […]; purchased Bachem, Torrance, Calif
The data set is described as follows: BASSR (Beta-Amyloid Self-Seeding Radioassay), inhibitors of self-seeded amyloid fibril growth. It is filed as biochemical. The note with it: 30 μM soluble Aβ(1-40) + 125I-labeled Aβ(1-40), 37° C., 3 to 5 hours; replicate values; letter = synthetic lot; ppt = precipitate; V-shaped = inhibition followed by precipitation. In a few lines: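 Self-seeded growth of ^125I-labeled Aβ(1-40) fibrils in 50 mM sodium phosphate pH 7.5, 100 mM NaCl, 0.02% NaN3, 1 M urea; compound (3-fold dilutions from 100 μM final) preincubated 10 min on ice, then 3–5 h at 37° C. Fibrils collected by vacuum filtration on 0.2 μm filters and counted for radioactivity.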

The target of data set [2] is T1, Aβ(1-40). The data set is described as follows: BASST (Beta-Amyloid Self-Seeding, Thioflavin T), inhibitors of self-seeded amyloid fibril growth. It is filed as biochemical. The conditions noted are these: 30 μM soluble Aβ(1-40), 37° C., 3 to 5 hours, thioflavin T fluorescence; replicate values; letter = synthetic lot; read-out: BASST (IC50 = μM). In a few lines:
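Self-seeded Aβ(1-40) fibril growth was run in 50 mM sodium phosphate pH 7.5, 100 mM NaCl, 0.02% NaN3, 1 M urea. Compounds were tested in 3-fold serial dilutions (top 100 μM final): 10 min on ice, then 3–5 h at 37 °C. Fibrils were read by 5 μM thioflavin T fluorescence (ex 440/em 485 nm).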

The target of the next data set is T2, Aβ (1-40) peptide (Homo sapiens, UniProt P05067).
T2 construct: 10 μL 0.5 mg/mL Aβ (1-40) peptide in 20% HFIP
T2 sequence (P05067 672-711 limits assumed): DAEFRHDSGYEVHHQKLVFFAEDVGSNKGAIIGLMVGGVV
The data set is described as follows: BAPA (Beta-Amyloid Peptide Aggregation, pH 6.0, filtration). It is filed as biochemical. The conditions noted are these: Aβ (1-40) 33 μM, pH 6.0, 2 to 4 hours at room temperature; replicate values; letter = synthetic lot. The gist of the method:
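Aggregation of human Aβ (1-40) peptide was measured in an endpoint filtration assay. The peptide was first reduced to monomer with hexafluoroisopropanol (HFIP), then used at 33 μM so it would aggregate at pH 6.0, and incubated for 2 to 4 hours at room temperature. Filter plates were washed with 100 μL phosphate buffer, impregnated with Meltilex, and counted on a Microbeta counter with background correction.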

The next data set has as its target T3, Aβ (1-42) (Homo sapiens, UniProt P05067).
T3 construct: Required Aβ (1-42) (California Peptide) was dried from its hexafluoroisopropanol (HFIP) stock solution; purchased California Peptide
The data set is described as follows: BATYM assay (Aβ (1-42) aggregation, Thioflavin T fluorescence). It is filed as biochemical. The note with it: Aβ 1-42 final concentration 100 μM, 37° C., 1 day, letter = synthetic lot. The gist of the method:
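Aβ (1-42) (100 μM final, PBS pH 7.4 from DMSO) incubated with compound at 37° C. for 1 day. Aggregation read by ThT (30 μM, glycine-NaOH pH 8.5) fluorescence, ex 440/em 485 nm; inhibition as fluorescence reduction corrected for compound-alone signal, IC50 by curve fitting from two experiments in triplicate.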

T3 sequence (P05067 672-713 limits assumed): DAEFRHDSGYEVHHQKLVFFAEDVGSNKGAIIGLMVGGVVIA
T1 sequence (P05067 672-711 limits assumed): as the sequence (P05067 672-711 limits assumed) above

`COc1ccc(CCc2ccc(Nc3ccccc3C(=O)O)cc2)cc1OC` [Example 116, 2-{4-[2-(3,4-Dimethoxy-phenyl)-ethyl]-phenylamino}-benzoic acid] displayed a melting point of 159 to 161 °C. At Aβ(1-40) [1], the concentration for half-maximal inhibition (IC50) was more than 100 µM. Also, at Aβ(1-40) [2], the IC50 is 18 µM and 30 µM. Also, the IC50 at Aβ (1-40) peptide worked out at 96 µM.

In turn, `O=C(O)c1ccccc1Nc1ccc(CCc2ccc(-c3ccccc3)cc2)cc1` [Example 129, 2-[4-(2-Biphenyl-4-yl-ethyl)-phenylamino]-benzoic acid] displayed a melting point of 200 to 202 °C. Moreover, at Aβ(1-40) [2], the IC50 is 10 µM and 3 µM and 2 µM (2×). Besides, the half-inhibitory concentration (IC50) on Aβ (1-42) was more than 100 µM. For the same molecule, the half-inhibitory concentration (IC50) on Aβ (1-40) peptide was more than 102 µM.

For `O=C(O)c1cc([N+](=O)[O-])ccc1Nc1ccc(CCc2ccc(Cl)cc2Cl)cc1` [Example 77, 2-{4-[2-(2,4-Dichloro-phenyl)-ethyl]-phenylamino}-5-nitro-benzoic acid], the melting point was in the range of 200.5 to 202.5 °C. The IC50 at Aβ(1-40) [1] was 18 µM and 15 µM. In addition, 9.49 µM corresponded to half-maximal inhibition at Aβ (1-42) (IC50). The half-maximal inhibitory concentration (IC50) against Aβ (1-40) peptide is more than 60 µM.

As to `CCN(CC)c1ccc(Nc2ccc(CCc3ccc(Cl)c(Cl)c3)cc2)c(C(=O)O)c1` [Example 151, 2-{4-[2-(3,4-Dichloro-phenyl)-ethyl]-phenylamino}-5-diethylamino-benzoic acid], the melting point was 106 to 110 °C. Also, the half-inhibitory concentration (IC50) on Aβ(1-40) [1] is more than 100 µM. Further, at Aβ (1-42), the IC50 is more than 100 µM. Besides, on Aβ (1-40) peptide, the half-inhibitory concentration (IC50) was 108 µM.

Molecule `Cc1ccc(CCc2ccc(Nc3ccc([N+](=O)[O-])cc3C(=O)O)cc2)cc1C` [Example 16, 2-{4-[2-(3,4-Dimethyl-phenyl)-ethyl]phenylamino}-5-nitrobenzoic acid] gave a melting point of 214 to 216 °C. Moreover, at Aβ(1-40) [2], the 50% inhibitory concentration (IC50) is 3 µM (2×) and 1.1 µM and 800 nM and 600 nM. Besides, the IC50 against Aβ (1-42) was 12 µM and 10.3 µM. In addition, the IC50 against Aβ (1-40) peptide came to 13 µM.

Molecule `O=C(O)c1cc(F)ccc1Nc1ccc(CCc2ccc(Cl)c(Cl)c2)cc1` [Example 71, 2-{4-[2-(3,4-Dichloro-phenyl)-ethyl]-phenylamino}-5-fluoro-benzoic acid] returned a melting point of 180 to 182 °C. At Aβ(1-40) [1], the 50% inhibitory concentration (IC50) was more than 100 µM. At Aβ(1-40) [2], the IC50 was found to be 3 µM. Further, the IC50 against Aβ (1-40) peptide was more than 60 µM.

In the case of `O=C(O)c1ccccc1Nc1ccc(CCCc2ccc(-n3cccc3)cc2)cc1` [Example 46, 2-(4-{3-[4-(1H-Pyrrol-1-yl)phenyl]propyl}phenylamino)benzoic acid], the melting point is 131 to 136 °C. Besides, on Aβ(1-40) [1], the half-inhibitory concentration (IC50) was more than 100 µM. Moreover, at Aβ(1-40) [2], the IC50 turned out to be 6 µM. This molecule also showed a concentration for half-maximal inhibition (IC50) against Aβ (1-42) of 34.3 µM.

As for `CCCCN1CCCc2cc(C=C3SC(=S)N(CCC(=O)O)C3=O)ccc21` [Example 57, 3-{5-[(1-Butyl-1,2,3,4-tetrahydroquinolin-6-yl)methylidene]-4-oxo-2-thioxo-thiazolidin-3-yl)propanoic acid], the melting point fell in the range of 214 to 215 °C. Also, the IC50 on Aβ(1-40) [1] was 4.8 µM. Moreover, the IC50 at Aβ(1-40) [2] came to 1.5 µM. On Aβ (1-42), this molecule gave an IC50 of 4 µM.

`CC(=O)Nc1ccc(CCc2ccc(Nc3ccccc3C(=O)O)cc2)cc1` [Example 35, 2-{4-[2-(4-Acetylaminophenyl)ethyl]phenylamino}benzoic acid] registered a melting point of 224 °C. The IC50 on Aβ(1-40) [1] was more than 100 µM. The IC50 against Aβ (1-42) was more than 100 µM. On Aβ (1-40) peptide, this molecule gave an IC50 of 154 µM.

In turn, `O=C(O)c1ccccc1Nc1ccc(CCc2cccc(Cl)c2)cc1` [Example 128, 2-{4-[2-(3-Chloro-phenyl)-ethyl]-phenylamino}-benzoic acid] came in with a melting point of 152 to 154 °C. The IC50 against Aβ (1-42) is 75 µM and > 60 µM. This molecule also gave an IC50 on Aβ (1-40) peptide of more than 60 µM.

`O=C(O)c1cc([N+](=O)[O-])ccc1Nc1ccc(CCc2ccc(-c3ccccc3)cc2)cc1` [Example 62, 2-[4-(2-Biphenyl-4-yl-ethyl)phenylamino]-5-nitro-benzoic acid] showed a melting point of 239 to 244 °C. Further, the IC50 on Aβ(1-40) [1] was more than 100 µM. The IC50 at Aβ(1-40) [2] came out at 1.5 µM. Also, at Aβ (1-42), inhibition was half-maximal at 8.98 µM (IC50).

For `O=C(O)c1ccccc1Nc1ccc(CCc2ccc(Cl)cc2Cl)cc1` [Example 130, 2-{4-[2-(2,4-Dichloro-phenyl)-ethyl]-phenylamino}-benzoic acid], the melting point lay within 181 to 183 °C. Besides, the 50% inhibitory concentration (IC50) at Aβ(1-40) [1] is more than 100 µM. Further, inhibition against Aβ (1-42) was half-maximal at 47.5 µM (IC50). On Aβ (1-40) peptide, this molecule returned an IC50 of 238 µM.

Turning to `CCN(CC)Cc1ccc(CCCc2ccc(Nc3ccccc3C(=O)O)cc2)cc1` [Example 50, 2-{4-[3-(4-Diethylaminomethylphenyl)propyl]phenylamino}benzoic acid], the melting point was determined as 137 °C. Besides, at Aβ(1-40) [1], the concentration for half-maximal inhibition (IC50) is more than 100 µM. Further, the concentration for half-maximal inhibition (IC50) at Aβ(1-40) [2] is more than 100 µM. For the same molecule, the IC50 against Aβ (1-42) was more than 100 µM.

Turning to `O=C(O)c1ccc(Nc2ccc(CCc3ccc(Cl)c(Cl)c3)cc2)cc1` [Example 132, 4-{4-[2-(3,4-Dichloro-phenyl)-ethyl]-phenylamino}-benzoic acid], the melting point fell in the range of 214 to 215 °C. Moreover, the IC50 at Aβ(1-40) [1] is more than 100 µM. Moreover, the half-inhibitory concentration (IC50) on Aβ(1-40) [2] was found to be 10 µM. On Aβ (1-42), this molecule registered a 50% inhibitory concentration (IC50) of more than 100 µM.

`CCCCN1CCCc2cc(C=C3SC(=S)N(CCCC(=O)O)C3=O)ccc21` [Example 58, 4-{5-[(1-Butyl-1,2,3,4-tetrahydroquinolin-6-yl)methylidene]-4oxo-2-thioxo-thiazolidin-3-yl)butanoic acid] gave a melting point of 152 to 154 °C. Moreover, the half-maximal inhibitory concentration (IC50) on Aβ(1-40) [1] was 3.5 µM. The concentration for half-maximal inhibition (IC50) at Aβ(1-40) [2] came to 1 µM. Also, at Aβ (1-42), half-maximal inhibition (IC50) required 5.1 µM.

`O=C(O)c1ccccc1Nc1ccc(CCCc2cccc(N3CCCCC3)c2)cc1` [Example 54, 2-{4-[3-(3-Piperidin-1yl-phenyl)-propyl]-phenylamino}-benzoic acid] yielded a melting point of 59 to 61 °C. In addition, at Aβ(1-40) [1], the IC50 was more than 100 µM. Also, on Aβ(1-40) [2], the concentration for half-maximal inhibition (IC50) turned out to be 0.4 µM. At Aβ (1-42), this molecule gave a concentration for half-maximal inhibition (IC50) of 43.9 µM.

Turning to `COc1ccc(Nc2ccc(CCCCc3ccc(Cl)c(Cl)c3)cc2)c(C(=O)O)c1` [Example 121, 2-{4-[4-(3,4-Dichloro-phenyl)-butyl]-phenylamino}-5-methoxy-benzoic acid], the melting point is 155 to 158 °C. Further, the IC50 on Aβ(1-40) [1] is more than 100 µM. Further, the IC50 on Aβ(1-40) [2] stood at 1 µM.

Consider `O=C(O)c1ccccc1Nc1ccc(CCCc2ccc(N3CCCC3)cc2)cc1` [Example 53, 2-{4-[3-(4-Pyrrolidin-1-yl-phenyl)-propyl]-phenylamino}-benzoic acid], for which the melting point was in the range of 171 to 177 °C. Also, on Aβ(1-40) [1], the IC50 was more than 100 µM. The 50% inhibitory concentration (IC50) at Aβ(1-40) [2] is 0.3 µM. This molecule also returned an IC50 against Aβ (1-42) of 30 µM.

In turn, `O=C(O)c1ccccc1Nc1ccc(-c2cc(Cl)cc(Cl)c2)cc1` [Example 137, 2-(3′,5′-Dichloro-biphenyl-4-ylamino)-benzoic acid] showed a melting point of more than 220 °C. For the same molecule, the half-inhibitory concentration (IC50) at Aβ(1-40) [1] was more than 100 µM. The IC50 at Aβ(1-40) [2] turned out to be 3 µM. Moreover, the IC50 at Aβ (1-40) peptide was 52 µM.

For the molecule `O=C(O)c1ccc(CCCc2ccc(Nc3ccccc3C(=O)O)cc2)cc1` [Example 49, 2-{4-[3-(4-Carboxyphenyl)propyl]phenylamino}benzoic acid], the melting point is 236 to 239 °C. Moreover, on Aβ(1-40) [1], the half-maximal inhibitory concentration (IC50) is more than 100 µM. The 50% inhibitory concentration (IC50) at Aβ(1-40) [2] is more than 100 µM. Besides, on Aβ (1-42), the IC50 is more than 100 µM.

In the case of `O=C(O)c1ccccc1Nc1cccc(CCc2ccc(Cl)cc2)c1` [Example 123, 2-{3-[2-(4-Chloro-phenyl)-ethyl]-phenylamino}-benzoic acid], the melting point was in the range of 155 to 157 °C. For the same molecule, the IC50 on Aβ (1-42) is 70.8 µM and 85.2 µM. This molecule also came in with a half-maximal inhibitory concentration (IC50) against Aβ (1-40) peptide of more than 60 µM.

Molecule `Cc1ccc(CCc2cccc(Nc3ccccc3C(=O)O)c2)cc1C` [Example 124, 2-{3-[2-(3,4-Dimethyl-phenyl)-ethyl]-phenylamino}-benzoic acid] registered a melting point of 182 to 184 °C. The IC50 at Aβ(1-40) [1] was more than 100 µM. Further, the IC50 on Aβ(1-40) [2] is 10 µM. Also, on Aβ (1-42), the IC50 was 62.7 µM.

Molecule `CCN(CC)C(=O)c1ccc(CCCc2ccc(Nc3ccccc3C(=O)O)cc2)cc1` [Example 48, 2-{4-[3-(4-Diethylcarbamoylphenyl)propyl]phenylamino}benzoic acid] gave a melting point of 57 to 62 °C. For the same molecule, on Aβ(1-40) [1], the IC50 turned out to be 25 µM. The IC50 at Aβ(1-40) [2] came out at 10 µM. Also, the concentration for half-maximal inhibition (IC50) on Aβ (1-42) is more than 100 µM.
